# From patent US6914045B2, “Glycopeptide antibiotics” (Wyeth Holdings Corporation, priority 2001, dated 2005)
# Key:
# Assay in all cases: in vitro antibacterial evaluation, MIC by broth dilution
# Format in all cases: cell-based
# [1] = test system: Staphylococcus sp.; conditions: broth dilution, 18 hours at 35° C.
# Summary of the method: (§1)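 Inoculum 5×10^5 CFU/mL; concentrations 64 to 0.06 μg/mL; MIC defined as lowest inhibitory level. Conducted by broth dilution under NCCLS guidelines.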
# [2] = test system: Escherichia coli; conditions: 18 hours at 35° C.
# Summary of the method: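 Step 1: dilute antibiotic across 64-0.06 μg/mL in Muller-Hinton II […]. Step 2: inoculate at 5×10^5 CFU/mL.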
# [3] = test system: Enterococcus sp.; conditions: broth dilution, 18 hours at 35° C.
# Summary of the method: as §1
# [4] = test system: Streptococcus sp.; conditions: broth dilution, 18 hours at 35° C.
# Summary of the method: as §1
smiles,measurement,setting,value
"CC(C)CC(=O)OC1C(O)C(CO)OC(OC2C(CO)OC(Oc3ccc(CC4NC(=O)C(C(C)c5cccc(F)c5)NC(=O)CNC(=O)C(CO)NC(=O)C(C(O)C5CNC(=N)N5C5OC(CO)C(O)C(O)C5O)NC(=O)C(C(O)C5CNC(=N)N5)NC4=O)cc3)C(O)C2O)C1O (stereo not drawn) [Example 264b, Cyclo[glycyl-3-fluoro-β-methylphenylalanyl-O-[4-O-[3-O-(3-methylbutanoyl)hexopyranosyl]-hexopyranosyl]tyrosyl-3-(2-iminoimidazolidin-4-yl)seryl-3-(3-hexopyranosyl-2-iminoimidazolidin-4-yl)serylseryl]]",MIC Coagulase Negative Staphylococcus (GC 4547),[1],4 µg/mL
same,MIC Coagulase Negative Staphylococcus (GC 4548),[1],4 µg/mL
same,MIC Coagulase Negative Staphylococcus (GC 4549),[1],4 µg/mL
same,MIC Coagulase Negative Staphylococcus (GC 4551),[1],8 µg/mL
same,MIC Staphylococcus aureus (ATCC 29213),[1],8 µg/mL
same,MIC Staphylococcus aureus (GC 1131),[1],8 µg/mL
same,MIC Staphylococcus aureus (GC 4541),[1],8 µg/mL
same,MIC Staphylococcus aureus (GC 4542),[1],8 µg/mL
same,MIC Staphylococcus aureus (GC 4544),[1],8 µg/mL
same,MIC Staphylococcus aureus (GC 4545),[1],4 µg/mL
same,MIC Staphylococcus aureus-SMITH (GC 4543),[1],8 µg/mL
same,MIC Staphylococcus haemolyticus (GC 4546),[1],4 µg/mL
same,MIC Staphylococcus aureus (ATCC 29213),[1]; strain ATCC 29213,8 µg/mL
same,MIC Staphylococcus aureus (GC 1131),[1]; strain GC 1131,8 µg/mL
same,MIC Staphylococcus aureus (GC 4541),[1]; strain GC 4541,8 µg/mL
same,MIC Staphylococcus aureus (GC 4542),[1]; strain GC 4542,8 µg/mL
same,MIC Staphylococcus aureus (GC 4544),[1]; strain GC 4544,8 µg/mL
same,MIC Staphylococcus aureus (GC 4545),[1]; strain GC 4545,4 µg/mL
same,MIC Staphylococcus haemolyticus (GC 4546),[1]; strain GC 4546,4 µg/mL
same,MIC Coagulase Negative Staphylococcus (GC 4547),[1]; strain GC 4547,4 µg/mL
same,MIC Coagulase Negative Staphylococcus (GC 4548),[1]; strain GC 4548,4 µg/mL
same,MIC Coagulase Negative Staphylococcus (GC 4549),[1]; strain GC 4549,4 µg/mL
same,MIC Coagulase Negative Staphylococcus (GC 4551),[1]; strain GC 4551,8 µg/mL
same,MIC Staphylococcus aureus-SMITH (GC 4543),[1]; strain SMITH GC 4543,8 µg/mL
same,MIC Escherichia coli (ATCC 25922),[2]; Escherichia coli (ATCC 25922),64 µg/mL
same,MIC Escherichia coli (GC 4559),[2]; Escherichia coli (GC 4559),>64 µg/mL
same,MIC Escherichia coli (GC 4560),[2]; Escherichia coli (GC 4560),4 µg/mL
same,MIC Enterococcus avium (GC 4558),[3]; Enterococcus avium (GC 4558),64 µg/mL
same,MIC Enterococcus faecalis (ATCC 29212),[3]; Enterococcus faecalis (ATCC 29212),64 µg/mL
same,MIC Enterococcus faecalis (GC 4553),[3]; Enterococcus faecalis (GC 4553),64 µg/mL
same,MIC Enterococcus faecalis (GC 4554),[3]; Enterococcus faecalis (GC 4554),64 µg/mL
same,MIC Enterococcus faecium (GC 2243),[3]; Enterococcus faecium (GC 2243),64 µg/mL
same,MIC Enterococcus faecium (GC 4556),[3]; Enterococcus faecium (GC 4556),64 µg/mL
same,MIC Enterococcus faecium (GC 4557),[3]; Enterococcus faecium (GC 4557),8 µg/mL
same,MIC Enterococcus faecalis (ATCC 29212),[3]; strain ATCC 29212,64 µg/mL
same,MIC Enterococcus faecalis (GC 2242),[3]; strain GC 2242,32 µg/mL
same,MIC Enterococcus faecium (GC 2243),[3]; strain GC 2243,64 µg/mL
same,MIC Enterococcus faecalis (GC 4552),[3]; strain GC 4552,64 µg/mL
same,MIC Enterococcus faecalis (GC 4553),[3]; strain GC 4553,64 µg/mL
same,MIC Enterococcus faecalis (GC 4554),[3]; strain GC 4554,64 µg/mL
same,MIC Enterococcus faecium (GC 4556),[3]; strain GC 4556,64 µg/mL
same,MIC Enterococcus faecium (GC 4557),[3]; strain GC 4557,8 µg/mL
same,MIC Enterococcus avium (GC 4558),[3]; strain GC 4558,64 µg/mL
same,MIC Streptococcus agalactiae (GC 4564),[4]; strain GC 4564,4 µg/mL
same,MIC Streptococcus pyogenes (ID-3187),[4]; strain ID-3187,4 µg/mL
